In patent US10106516B2, “PDE10 inhibitors and related compositions and methods” (Omeros Corporation, priority 2010, dated 2018):

Target: T1, PDE10 (Homo sapiens, UniProt Q9Y233)
T1 construct: made in house; host or cells: Sf9 insect cells (baculovirus)
Test: PDE10 biochemical assay (two-step Thompson and Appleman method or SPA)
Details: PDE10 inhibition
Description: In short, cAMP is spiked with (^3H)cAMP and incubated with PDE10 and various concentrations of a compound of structure (I). After the appropriate incubation time, the reaction is terminated by heating. The mixture is then subjected to treatment with snake venom phosphatase. The phosphatase hydrolyzes any AMP in the mixture, but leaves unreacted cAMP intact. Thus, by separating cAMP from the mixture and determining its concentration (by radiography), the percent of inhibition can be determined. IC50 values can be calculated by performing the experiment at several concentrations using standard graphical means. A detailed description of the actual technique used for IC50 assays as set forth in following Examples.
The phosphodiesterase (PDE) assay was performed using recombinant human PDE 1A3, 2A3, 3 catalytic region, 4 catalytic region, 5 catalytic region, 7A, 8A, 9A2, 10A1 and 11A1 enzymes expressed in a baculoviral system using Sf9 cells. PDE activity was measured using a modification of the two-step method of Thompson and Appleman described above which was adapted for 96 well plate format. […] The final assay volume was 110 μl with assay buffer (10 mM MgCl2; 40 mM Tris.HCl; pH 7.4). Reactions were initiated with enzyme and incubated with (^3H)-substrate and substance for 20 minutes at 30° C. The reaction was terminated by denaturing the enzyme (heating the reaction to 70° C. for 2 minutes). The reaction was then cooled at 4° C. for 10 minutes before the addition of snake venom (Crotalus atrox, 0.2 mg/ml) for 10 minutes at 30° C., thus allowing non-specific hydrolysis of the tritiated substrate. Separation of the remaining unhydrolysed cyclic nucleotide was achieved by a batch binding of the mixture to activated Dowex (200 μl) anion exchange resin. The anion exchange resin bound the charged nucleotides, leaving only hydrolysed (^3H) substrate in the soluble fraction. The soluble fraction (50 μl) was then added to microscint-20 (200 μl) and counted on a Top Count Plate reader. Radioactivity units were plotted against inhibitor concentration and IC50 values obtained using Graph Pad Prism software.
Alternatively, phosphodiesterase activity was measured by scintillation proximity assay (SPA) with [^3H]-cGMP as substrate. Purified PDE10 was diluted and stored in 25 mM Tris-Cl (pH 8.0)/100 mM NaCl/0.05% Tween 20/50% glycerol/3 mM DTT. Assays contained (final concentrations): 50 mM Tris-Cl (pH 7.5)/8.3 mM MgCl2/1.7 mM EGTA/0.5 mg/ml BSA/5% DMSO and 2 ng PDE10 in a final volume of 0.1 mL. Inhibition was evaluated at 8 concentrations in duplicate. Reactions were initiated by addition of enzyme and were terminated after 20 minutes at 30° C. by the addition of 50 μl of SPA beads containing Zn^++. The mixture was shaken, allowed to settle for 3 hours, and counted in a Wallac plate counter. Results (net cpm) were fitted to a four parameter logistic model using Excel Solver®.

T1 sequence (Q9Y233 1-779 isoform Q9Y233-1): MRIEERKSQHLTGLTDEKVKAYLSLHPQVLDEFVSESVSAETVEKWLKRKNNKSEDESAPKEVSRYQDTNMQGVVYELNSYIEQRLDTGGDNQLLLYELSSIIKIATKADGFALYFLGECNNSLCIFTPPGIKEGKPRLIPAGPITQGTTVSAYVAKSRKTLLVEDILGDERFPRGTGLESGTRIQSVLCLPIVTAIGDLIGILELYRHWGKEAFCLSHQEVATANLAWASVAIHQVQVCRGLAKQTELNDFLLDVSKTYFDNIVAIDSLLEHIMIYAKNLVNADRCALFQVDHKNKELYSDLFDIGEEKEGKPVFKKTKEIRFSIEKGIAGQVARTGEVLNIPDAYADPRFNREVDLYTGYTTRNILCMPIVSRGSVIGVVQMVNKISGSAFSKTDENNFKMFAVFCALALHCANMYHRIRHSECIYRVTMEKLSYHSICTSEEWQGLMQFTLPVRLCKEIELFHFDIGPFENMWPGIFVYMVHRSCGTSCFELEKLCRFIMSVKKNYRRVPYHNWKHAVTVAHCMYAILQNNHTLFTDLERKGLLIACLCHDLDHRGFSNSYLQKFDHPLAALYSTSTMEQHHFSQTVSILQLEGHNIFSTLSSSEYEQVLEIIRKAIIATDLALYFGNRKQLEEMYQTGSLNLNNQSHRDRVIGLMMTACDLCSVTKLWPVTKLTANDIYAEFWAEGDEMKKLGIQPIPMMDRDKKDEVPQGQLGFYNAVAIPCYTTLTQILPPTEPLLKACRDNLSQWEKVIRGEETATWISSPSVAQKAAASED

SMILES | IC50 [nM]
COc1cc(-c2coc(C(=O)C(OC)c3cccc(N4CCOCC4)c3)n2)cc(OC)c1Br (centres unmarked) [Compound 65-1] | ≤ 1000
COc1cc(-c2ccc(C(=O)C(OC)c3ccc(CN4CCOCC4)cc3)o2)cc(OC)c1Br (centres unmarked) [Compound 26-1, 1-(5-(4-Bromo-3,5-Dimethoxyphenyl)Furan-2-Yl)-2-Methoxy-2-(4-(Morpholinomethyl)Phenyl)Ethanone] | ≤ 1000
COc1cc(-c2ccc(C(=O)C(OC)c3ccc(-n4cccn4)cc3)o2)cc(OC)c1OC (centres unmarked) [Compound 65-9] | ≤ 1000
COc1cc(-c2ccc(C(=O)C(OC)c3ccc(N4CCOCC4)cc3)o2)cc(OC)c1F (centres unmarked) [Compound 48-1, 1-(5-(4-Fluoro-3,5-Dimethoxyphenyl)Furan-2-Yl)-2-Methoxy-2-(4-Morpholinophenyl)Ethanone] | ≤ 1000
COc1cc(-c2ccc(C(=O)C(OC)c3ccc(-c4nnc(C5CC5)o4)cc3)o2)cc(OC)c1OC (centres unmarked) [Compound 60-1, 2-(4-(5-Cyclopropyl-1,3,4-Oxadiazol-2-Yl)Phenyl)-2-Methoxy-1-(5-(3,4,5-Trimethoxyphenyl)Furan-2-Yl)Ethanone] | ≤ 1000
CCc1nnc(-c2ccc(C(OC)C(=O)c3ccc(-c4cc(OC)c(Br)c(OC)c4)o3)cc2)o1 (centres unmarked) [Compound 18-1, 1-(5-(4-Bromo-3,5-Dimethoxyphenyl)Furan-2-Yl)-2-(4-(5-Ethyl-1,3,4-Oxadiazol-2-Yl)Phenyl)-2-Methoxyethanone] | ≤ 1000
COc1cc(-c2ccc(C(=O)C(OC)c3ccc(-c4cn[nH]c4)cc3)o2)cc(OC)c1Br (centres unmarked) [Compound 15-1, 2-(4-(1H-Pyrazol-4-Yl)Phenyl)-1-(5-(4-Bromo-3,5-Dimethoxyphenyl)Furan-2-Yl)-2-Methoxyethanone] | ≤ 1000
COc1cc(-c2coc(C(=O)C(OC)c3ccc(-n4cccn4)cc3)n2)cc(OC)c1Br (centres unmarked) [Compound 5-1, 2-(4-(1H-Pyrazol-1-Yl)Phenyl)-1-(4-(4-Bromo-3,5-Dimethoxyphenyl)Oxazol-2-Yl)-2-Methoxyethanone] | ≤ 1000
COc1cc(-c2ccc(C(=O)C(OC)c3ccc(-c4nnc(C)s4)cc3)o2)cc(OC)c1OC (centres unmarked) [Compound 65-8] | ≤ 1000
COc1cc(-c2ccc(C(=O)C(OC)c3ccc(-n4cncn4)cc3)o2)cc(OC)c1Br (centres unmarked) [Compound 32-1, 2-(4-(1H-1,2,4-Triazol-1-Yl)Phenyl)-1-(5-(4-Bromo-3,5-Dimethoxyphenyl)Furan-2-Yl)-2-Methoxyethanone] | ≤ 1000
COc1cc(-c2ccc(C(=O)C(OC)c3ccc(-c4cnccn4)cc3)o2)cc(OC)c1Br (centres unmarked) [Compound 45-1, 1-(5-(4-Bromo-3,5-Dimethoxyphenyl)Furan-2-Yl)-2-Methoxy-2-(4-(Pyrazin-2-Yl)Phenyl)Ethanone] | ≤ 1000
COc1cc(-c2ccc(C(=O)C(OC)c3ccc(CN(C)C)cc3)o2)cc(OC)c1Br (centres unmarked) [Compound 43-1, 1-(5-(4-Bromo-3,5-Dimethoxyphenyl)Furan-2-Yl)-2-(4-((Dimethylamino)Methyl)Phenyl)-2-Methoxyethanone] | ≤ 1000
COc1cc(-c2ccc(C(=O)C(OC)c3ccc(-c4nnc(C5CC5)o4)cc3)o2)cc(OC)c1Br (centres unmarked) [Compound 22-1, 1-(5-(4-Bromo-3,5-Dimethoxyphenyl)Furan-2-Yl)-2-(4-(5-Cyclopropyl-1,3,4-Oxadiazol-2-Yl)Phenyl)-2-Methoxyethanone] | ≤ 1000
COc1cc(-c2coc(C(=O)C(OC)c3ccc(N4CCCC4)cc3)n2)cc(OC)c1Br (centres unmarked) [Compound 7-1, 1-(4-(4-Bromo-3,5-Dimethoxyphenyl)Oxazol-2-Yl)-2-Methoxy-2-(4-(Pyrrolidin-1-Yl)Phenyl)Ethanone] | ≤ 1000
COc1cc(-c2cnc(C(=O)C(OC)c3ccc(N4CCOCC4)cc3)o2)cc(OC)c1Br (centres unmarked) [Compound 56-1, 1-(5-(4-Bromo-3,5-Dimethoxyphenyl)Oxazol-2-Yl)-2-Methoxy-2-(4-Morpholinophenyl)Ethanone] | ≤ 1000
COc1cc(-c2ccc(C(=O)C(OC)c3ccc(-c4ccc(C)o4)cc3)o2)cc(OC)c1Br (centres unmarked) [Compound 16-1, 1-(5-(4-Bromo-3,5-Dimethoxyphenyl)Furan-2-Yl)-2-Methoxy-2-(4-(5-Methylfuran-2-Yl)Phenyl)Ethanone] | ≤ 1000
COc1cc(-c2ccc(C(=O)C(OC)c3ccc(-n4cccn4)cc3)o2)cc(OC)c1Br (centres unmarked) [Compound 14-1, 2-(4-(1H-Pyrazol-1-Yl)Phenyl)-1-(5-(4-Bromo-3,5-Dimethoxyphenyl)Furan-2-Yl)-2-Methoxyethanone] | ≤ 1000
COc1cc(-c2ccc(C(=O)C(OC)c3ccc(N4CCCS4(=O)=O)cc3)o2)cc(OC)c1Br (centres unmarked) [Compound 19-1, 1-(5-(4-Bromo-3,5-Dimethoxyphenyl)Furan-2-Yl)-2-(4-(1,1-Dioxidoisothiazolidin-2-Yl)Phenyl)-2-Methoxyethanone] | ≤ 1000
COc1cc(-c2ccc(C(=O)C(OC)c3ccc(N4CCOCC4)cc3)o2)cc(OC)c1OC (centres unmarked) [Compound 65-7] | ≤ 1000
CCOC(C(=O)c1ccc(-c2cc(OC)c(Cl)c(OC)c2)o1)c1ccc(N2CCOCC2)cc1 (centres unmarked) [Compound 64-1, 1-(5-(4-Chloro-3,5-Dimethoxyphenyl)Furan-2-Yl)-2-Ethoxy-2-(4-Morpholinophenyl)Ethanone] | ≤ 1000
COc1cc(-c2nc(C(=O)C(OC)c3ccc(N4CCOCC4)cc3)no2)cc(OC)c1Br (centres unmarked) [Compound 54-1, 1-(5-(4-Bromo-3,5-Dimethoxyphenyl)-1,2,4-Oxadiazol-3-Yl)-2-Methoxy-2-(4-Morpholinophenyl)Ethanone] | ≤ 1000
COc1cc(-c2ccc(C(=O)C(OCC3CC3)c3ccc(N4CCOCC4)cc3)o2)cc(OC)c1Br (centres unmarked) [Compound 41-1, 1-(5-(4-Bromo-3,5-Dimethoxyphenyl)Furan-2-Yl)-2-(Cyclopropylmethoxy)-2-(4-Morpholinophenyl)Ethanone] | ≤ 1000
COc1cc(-c2ccc(C(=O)C(OC)c3ccc4c(c3)nnn4C)o2)cc(OC)c1Br (centres unmarked) [Compound 25-1, 1-(5-(4-Bromo-3,5-Dimethoxyphenyl)Furan-2-Yl)-2-Methoxy-2-(1-Methyl-1H-Benzo[D][1,2,3]Triazol-5-Yl)Ethanone] | ≤ 1000
COc1cc(-c2ccc(C(=O)C(OC)c3ccc(N4CCOCC4)cc3)o2)cc(OC)c1Br (centres unmarked) [Compound 12-1, 1-(5-(4-Bromo-3,5-Dimethoxyphenyl)Furan-2-Yl)-2-Methoxy-2-(4-Morpholinophenyl)Ethanone] | ≤ 1000
COc1cc(-c2coc(C(=O)C(OC)c3ccc(-n4cc(C)cn4)cc3)n2)cc(OC)c1Br (centres unmarked) [Compound 65-6] | ≤ 1000
COc1cc(-c2coc(C(=O)C(OC)c3ccc(-n4ccnn4)cc3)n2)cc(OC)c1Br (centres unmarked) [Compound 65-4] | ≤ 1000
COc1cc(-c2ccc(C(=O)C(OC)c3ccc(N4CCOCC4)nc3)o2)cc(OC)c1Br (centres unmarked) [Compound 44-1, 1-(5-(4-Bromo-3,5-Dimethoxyphenyl)Furan-2-Yl)-2-Methoxy-2-(6-Morpholinopyridin-3-Yl)Ethanone] | ≤ 1000
COc1cc(-c2coc(C(=O)C(OC)c3ccc(OC(F)(F)F)cc3)n2)cc(OC)c1Br (centres unmarked) [Compound 65-3] | ≤ 1000
COc1cc(-c2ccc(C(=O)C(OC)c3ccc(N4CCCCC4)nc3)o2)cc(OC)c1Br (centres unmarked) [Compound 23-1, 1-(5-(4-Bromo-3,5-Dimethoxyphenyl)Furan-2-Yl)-2-Methoxy-2-(6-(Piperidin-1-Yl)Pyridin-3-Yl)Ethanone] | ≤ 1000
